Literature values, collected in paper PMC4364779, “IMD-4690, a Novel Specific Inhibitor for Plasminogen Activator Inhibitor-1, Reduces Allergic Airway Remodeling in a Mouse Model of Chronic Asthma via Regulating Angiogenesis and Remodeling-Related Mediators” (PLoS ONE, 2015).

Tested on: murine model of chronic asthma
Parameters: method as in PMID 22323366
Settings: cited from earlier work

O=C(O)C(=O)c1cn(Cc2ccccc2)c2ccc(-c3ccc(OC(F)(F)F)cc3)cc12 [tiplaxtinin]
Allergic airway inflammation and lung collagen deposition: attenuated
